Results taken from patent EP4745135A1 (Gluetacs Therapeutics (Shanghai) Co., Ltd., priority 2023, dated 2025).

Biological target: T1, human Cereblon WT GST-tagged protein (Homo sapiens, UniProt Q96SW2)
T1 construct: purchased CISBIO 64BDCRBNPEH
Assay: CRBN-binding affinity, HTRF (CEREBLON BINDING kit)
Conditions: for inhibition at 0.5 µM: read-out: Inhibition Rate at 0.5 µM (%); for inhibition at 2 µM: read-out: Inhibition Rate at 2 µM (%); for IC50: CRBN binding, HTRF, 3 hours at room temperature, read-out: HTRF IC50
Procedure: The CEREBLON BINDING kits (specification: 10,000 tests; product number: Catalog # 64BDCRBNPEH; CISBIO company) was used to determine the CRBN binding ability of the compounds to be tested through a HTRF method (homogeneous time-resolved fluorescence). The specific methods are as follows: • 1. […] Specifically, diluent #9 (1X) solution was used as the diluent, and multiple concentration gradients were set. […] Then, 2.5 µL of human Cereblon WT GST-tagged protein solution was added to each well. Finally, 5 µL of the thoroughly mixed Thalidomide-Re reagent and GST Eu antibody working solution were added to each of the aforementioned wells. […] The blank control wells were sequentially added with 2.5 µL of diluent #9 (1X) solution, 2.5 µL of PROTAC binding buffer, and 5 µL of thoroughly mixed Thalidomide-Re reagent and GST Eu antibody working solution. • 4.

T1 sequence (Q96SW2 whole entry): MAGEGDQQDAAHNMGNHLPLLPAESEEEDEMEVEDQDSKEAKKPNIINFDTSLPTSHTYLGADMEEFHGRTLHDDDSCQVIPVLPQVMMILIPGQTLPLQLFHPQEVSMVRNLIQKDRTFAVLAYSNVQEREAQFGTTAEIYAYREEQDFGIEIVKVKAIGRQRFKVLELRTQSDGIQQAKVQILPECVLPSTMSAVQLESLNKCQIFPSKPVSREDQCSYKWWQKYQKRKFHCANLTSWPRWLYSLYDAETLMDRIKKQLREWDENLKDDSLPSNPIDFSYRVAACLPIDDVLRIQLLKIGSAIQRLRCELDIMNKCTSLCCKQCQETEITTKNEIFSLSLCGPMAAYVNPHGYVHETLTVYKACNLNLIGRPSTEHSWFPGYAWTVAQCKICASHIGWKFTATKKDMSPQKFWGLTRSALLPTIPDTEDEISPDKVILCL

SMILES	inhibition at 0.5 µM	inhibition at 2 µM	IC50
O=C1CCC(N2Cc3c(CN4CC5CCC4CN5C(c4ccccc4)c4ccccc4)cccc3C2=S)C(=O)N1 (stereo not shown) [GT-08233, 3-(4-((5-benzhydryl-2,5-diazabicyclo[2.2.2]octan-2-yl)methyl)-1-thioxoisoindolin-2-yl)piperidine-2,6-dione]	53 to 60%	80 to 100%	
O=C1CCC(N2Cc3cc(CN4CCn5c(nnc5C(F)(F)F)C4)ccc3C2=S)C(=O)N1 (stereo not shown) [GT-05090, 3-(1-thioxo-5-((3-(trifluoromethyl)-5,6-dihydro-[1,2,4]triazolo[4,3-a]pyrazin-7(8H)-yl)methyl)isoindolin-2-yl)piperidine-2,6-dione]			100 to 500 nM
Cc1nc(C2=CCN(Cc3ccc4c(c3)CN(C3CCC(=O)NC3=O)C4=S)CC2)c2c3c(sc2n1)CCCC3 (stereo not shown) [GT-09323, 3-(5-((4-(2-methyl-5,6,7,8-tetrahydrobenzo[4,5]thieno[2,3-d]pyrimidin-4-yl)-3,6-dihydropyridin-1(2H)-yl)methyl)-1-thioxoisoindolin-2-yl)piperidine-2,6-dione]	40 to 53%	80 to 100%	
O=C1CCC(N2Cc3cc(CN4CCN(c5cc(Cl)nnc5Cl)CC4)ccc3C2=S)C(=O)N1 (stereo not shown) [GT-09248, 3-(5-((4-(3,6-dichloropyridazin-4-yl)piperazin-1-yl)methyl)-1-thioxoisoindolin-2-yl)piperidine-2,6-dione]	60 to 80%	80 to 100%	
O=C1CCC(N2Cc3cc(CN4CCC(c5ccon5)CC4)ccc3C2=S)C(=O)N1 (stereo not shown) [GT-09256, 3-(5-((4-(isoxazol-3-yl)piperidin-1-yl)methyl)-1-thioxoisoindolin-2-yl)piperidine-2,6-dione]	60 to 80%	80 to 100%	
Cc1cc2c(C3CCN(Cc4ccc5c(c4)CN(C4CCC(=O)NC4=O)C5=S)CC3)ncnc2s1 (stereo not shown) [GT-09305, 3-(5-((4-(6-methylthieno[2,3-d]pyrimidin-4-yl)piperidin-1-yl)methyl)-1-thioxoisoindolin-2-yl)piperidine-2,6-dione]	60 to 80%	80 to 100%	
O=C1CCC(N2Cc3cc(CN4CCN(c5ncnc6scc(-c7ccccc7)c56)CC4)ccc3C2=S)C(=O)N1 (stereo not shown) [GT-09297, 3-(5-((4-(5-phenylthieno[2,3-d]pyrimidin-4-yl)piperazin-1-yl)methyl)-1-thioxoisoindolin-2-yl)piperidine-2,6-dione]	60 to 80%	80 to 100%	
O=C1CCC(N2Cc3cc(CN4CCN(c5ncnc6sc(Br)cc56)CC4)ccc3C2=S)C(=O)N1 (stereo not shown) [GT-09295, 3-(5-((4-(6-bromothieno[2,3-d]pyrimidin-4-yl)piperazin-1-yl)methyl)-1-thioxoisoindolin-2-yl)piperidine-2,6-dione]	80 to 100%	80 to 100%	
Cc1sc2ncnc(N3CCCN(Cc4ccc5c(c4)CN(C4CCC(=O)NC4=O)C5=S)CC3)c2c1C (stereo not shown) [GT-09287, 3-(5-((4-(5,6-dimethylthieno[2,3-d]pyrimidin-4-yl)-1,4-diazepan-1-yl)methyl)-1-thioxoisoindolin-2-yl)piperidine-2,6-dione]	80 to 100%	80 to 100%	
CC(C)c1cc2c(N3CCN(Cc4ccc5c(c4)CN(C4CCC(=O)NC4=O)C5=S)CC3)ncnc2s1 (stereo not shown) [GT-09284, 3-(5-((4-(6-isopropylthieno[2,3-d]pyrimidin-4-yl)piperazin-1-yl)methyl)-1-thioxoisoindolin-2-yl)piperidine-2,6-dione]	40 to 53%	80 to 100%	
O=C1CCC(N2Cc3cc(CN4CCC(c5ncnc6sccc56)CC4)ccc3C2=S)C(=O)N1 (stereo not shown) [GT-09304, 3-(5-((4-(thieno[2,3-d]pyrimidin-4-yl)piperidin-1-yl)methyl)-1-thioxoisoindolin-2-yl)piperidine-2,6-dione]	60 to 80%	80 to 100%	
O=C1CCC(N2Cc3cc(CN4CCN(C(=O)C5=C(c6ccc(F)cc6)CCCC5)CC4)ccc3C2=S)C(=O)N1 (stereo not shown) [GT-08165, 3-(5-((4-(4'-fluoro-3,4,5,6-tetrahydro-[1,1'-biphenyl]-2-carbonyl)piperazin-1-yl)methyl)-1-thioxoisoindolin-2-yl)piperidine-2,6-dione]	60 to 80%	80 to 100%	
O=C1CCC(N2Cc3cc(CN4CC5CCC(C4)N5C(c4ccccc4)c4ccccc4)ccc3C2=S)C(=O)N1 (stereo not shown) [GT-07849, 3-(5-((8-benzhydryl-3,8-diazabicyclo[3.2.1]octan-3-yl)methyl)-1-thioxoisoindolin-2-yl)piperidine-2,6-dione]	30 to 40%	60 to 80%	

Continued, values first:

inhibition at 0.5 µM	inhibition at 2 µM	IC50	SMILES
60 to 80%	80 to 100%		O=C1CCC(N2Cc3cc(CN4CCN(c5ccc(Cl)nn5)CC4)ccc3C2=S)C(=O)N1 (stereo not shown) [GT-09251, 3-(5-((4-(6-chloropyridazin-3-yl)piperazin-1-yl)methyl)-1-thioxoisoindolin-2-yl)piperidine-2,6-dione]
		< 100 nM	O=C1CCC(N2Cc3c(CO)cccc3C2=S)C(=O)N1 (stereo not shown) [GT-06981, 3-(4-(hydroxymethyl)-1-thioxoisoindolin-2-yl)piperidine-2,6-dione]
60 to 80%	80 to 100%		O=C1CCC(N2Cc3cc(CN4CCN(c5cnccn5)CC4)ccc3C2=S)C(=O)N1 (stereo not shown) [GT-09253, 3-(5-((4-(pyrazin-2-yl)piperazin-1-yl)methyl)-1-thioxoisoindolin-2-yl)piperidine-2,6-dione]
30 to 40%	60 to 80%		O=C1CCC(N2Cc3c(CN4CCN(Cc5ccccc5-c5ccc(Cl)cc5)CC4)cccc3C2=S)C(=O)N1 (stereo not shown) [GT-08295, 3-(4-((4-((4'-chloro-[1,1'-biphenyl]-2-yl)methyl)piperazin-1-yl)methyl)-1-thioxoisoindolin-2-yl)piperidine-2,6-dione]
60 to 80%	80 to 100%		O=C1CCC(N2Cc3c(CN4CCN(c5nc(N6CCNCC6)c6sccc6n5)CC4)cccc3C2=S)C(=O)N1 (stereo not shown) [GT-09036, 3-(4-((4-(4-(piperazin-1-yl)thieno[3,2-d]pyrimidin-2-yl)piperazin-1-yl)methyl)-1-thioxoisoindolin-2-yl)piperidine-2,6-dione]
60 to 80%	80 to 100%		O=C1CCC(N2Cc3c(CN4CCN(c5nc6c(c(N7CCOCC7)n5)SCC6)CC4)cccc3C2=S)C(=O)N1 (stereo not shown) [GT-08969, 3-(4-((4-(4-morpholino-6,7-dihydrothieno[3,2-d]pyrimidin-2-yl)piperazin-1-yl)methyl)-1-thioxoisoindolin-2-yl)piperidine-2,6-dione]
60 to 80%	80 to 100%		O=C1CCC(N2Cc3c(CN4CCN(c5cccs5)CC4)cccc3C2=S)C(=O)N1 (stereo not shown) [GT-08297, 3-(4-((4-(thiophen-2-yl)piperazin-1-yl)methyl)-1-thioxoisoindolin-2-yl)piperidine-2,6-dione]
40 to 53%	80 to 100%		O=C1CCC(N2Cc3c(CN4CCN(C(c5ccccn5)c5ccccn5)CC4)cccc3C2=S)C(=O)N1 (stereo not shown) [GT-08201, 3-(4-((4-(di(pyridin-2-yl)methyl)piperazin-1-yl)methyl)-1-thioxoisoindolin-2-yl)piperidine-2,6-dione]
60 to 80%	80 to 100%		O=C1CCC(N2Cc3cc(CN4CCN(c5noc6ccncc56)CC4)ccc3C2=S)C(=O)N1 (stereo not shown) [GT-09258, 3-(5-((4-(isoxazolo[4,5-c]pyridin-3-yl)piperazin-1-yl)methyl)-1-thioxoisoindolin-2-yl)piperidine-2,6-dione]
60 to 80%	80 to 100%		O=C1CCC(N2Cc3cc(CN4CCN(c5ncnc(Cl)c5Cl)CC4)ccc3C2=S)C(=O)N1 (stereo not shown) [GT-09254, 3-(5-((4-(5,6-dichloropyrimidin-4-yl)piperazin-1-yl)methyl)-1-thioxoisoindolin-2-yl)piperidine-2,6-dione]
60 to 80%	80 to 100%		O=C1CCC(N2Cc3cc(CN4CCN(c5ncncn5)CC4)ccc3C2=S)C(=O)N1 (stereo not shown) [GT-09249, 3-(5-((4-(1,3,5-triazin-2-yl)piperazin-1-yl)methyl)-1-thioxoisoindolin-2-yl)piperidine-2,6-dione]
80 to 100%	80 to 100%		O=C1CCC(N2Cc3cc(CN4CCN(c5ncnc6sccc56)CC4)ccc3C2=S)C(=O)N1 (stereo not shown) [GT-09280, 3-(5-((4-(thieno[2,3-d]pyrimidin-4-yl)piperazin-1-yl)methyl)-1-thioxoisoindolin-2-yl)piperidine-2,6-dione]
		100 to 500 nM	O=C1CCC(N2Cc3ccc(CN4CCN(c5nsc6ccccc56)CC4)cc3C2=S)C(=O)N1 (stereo not shown) [GT-05040, 3-(6-((4-(benzo[d]isothiazol-3-yl)piperazin-1-yl)methyl)-1-thioxoisoindolin-2-yl)piperidine-2,6-dione]
40 to 53%	60 to 80%		O=C1CCC(N2Cc3c(CN4CCC(Nc5ccccc5-c5ccc(Cl)cc5)CC4)cccc3C2=S)C(=O)N1 (stereo not shown) [GT-09034, 3-(4-((4-((4'-chloro-[1,1'-biphenyl]-2-yl)amino)piperidin-1-yl)methyl)-1-thioxoisoindolin-2-yl)piperidine-2,6-dione]
60 to 80%	80 to 100%		O=C1CCC(N2Cc3cc(CN4CCN(c5noc6cc(F)ccc56)CC4)ccc3C2=S)C(=O)N1 (stereo not shown) [GT-09257]
60 to 80%	80 to 100%		O=C1CCC(N2Cc3cc(CN4CCN(c5cccnn5)CC4)ccc3C2=S)C(=O)N1 (stereo not shown) [GT-09265, 3-(5-((4-(pyridazin-3-yl)piperazin-1-yl)methyl)-1-thioxoisoindolin-2-yl)piperidine-2,6-dione]
